Experimental data reported in the NIST ThermoML archive (doi:10.1016/j.jct.2012.11.011).
± gives the expanded uncertainty stated by the source.

Assay: xn = mol fraction of the nth substance listed
Conditions: Liquid, Vibrating tube method

SMILES: COC(=O)OC [dimethyl carbonate] + CCCCCCCC
- mass density (298.15 K, 20000 kPa, x1 = 0.0535): 723.6 ± 0.5 kg/m3
- mass density (298.15 K, 20000 kPa, x1 = 0.0978): 731.7 ± 0.5 kg/m3
- mass density (298.15 K, 20000 kPa, x1 = 0.3935): 800.1 ± 0.4 kg/m3
- mass density (298.15 K, 20000 kPa, x1 = 0.496): 830.4 ± 0.4 kg/m3
- mass density (298.15 K, 20000 kPa, x1 = 0.5475): 847.5 ± 0.4 kg/m3
- mass density (298.15 K, 20000 kPa, x1 = 0.5937): 864.6 ± 0.4 kg/m3
- mass density (298.15 K, 20000 kPa, x1 = 0.7002): 906.8 ± 0.4 kg/m3
- mass density (298.15 K, 20000 kPa, x1 = 0.8013): 954.2 ± 0.4 kg/m3
- mass density (298.15 K, 20000 kPa, x1 = 0.8979): 1010.1 ± 0.3 kg/m3
- mass density (298.15 K, 20000 kPa, x1 = 0.9502): 1043.7 ± 0.4 kg/m3
- mass density (298.15 K, 30000 kPa, x1 = 0.0535): 730.5 ± 0.6 kg/m3
- mass density (298.15 K, 30000 kPa, x1 = 0.0978): 738.7 ± 0.6 kg/m3
- mass density (298.15 K, 30000 kPa, x1 = 0.3935): 807.7 ± 0.5 kg/m3
- mass density (298.15 K, 30000 kPa, x1 = 0.496): 838.1 ± 0.4 kg/m3
- mass density (298.15 K, 30000 kPa, x1 = 0.5475): 855.3 ± 0.4 kg/m3
- mass density (298.15 K, 30000 kPa, x1 = 0.5937): 872.4 ± 0.4 kg/m3
- mass density (298.15 K, 30000 kPa, x1 = 0.7002): 914.8 ± 0.4 kg/m3
- mass density (298.15 K, 30000 kPa, x1 = 0.8013): 962.1 ± 0.4 kg/m3
- mass density (298.15 K, 30000 kPa, x1 = 0.8979): 1018 ± 0.4 kg/m3
- mass density (298.15 K, 30000 kPa, x1 = 0.9502): 1051.7 ± 0.4 kg/m3
- mass density (298.15 K, 40000 kPa, x1 = 0.0535): 736.8 ± 0.7 kg/m3
- mass density (298.15 K, 40000 kPa, x1 = 0.0978): 745.1 ± 0.6 kg/m3
- mass density (298.15 K, 40000 kPa, x1 = 0.3935): 814.6 ± 0.5 kg/m3
- mass density (298.15 K, 40000 kPa, x1 = 0.496): 845.1 ± 0.5 kg/m3
- mass density (298.15 K, 40000 kPa, x1 = 0.5475): 862.5 ± 0.5 kg/m3
- mass density (298.15 K, 40000 kPa, x1 = 0.5937): 879.6 ± 0.4 kg/m3
- mass density (298.15 K, 40000 kPa, x1 = 0.7002): 922 ± 0.4 kg/m3
- mass density (298.15 K, 40000 kPa, x1 = 0.8013): 969.7 ± 0.4 kg/m3
- mass density (298.15 K, 40000 kPa, x1 = 0.8979): 1025.6 ± 0.4 kg/m3
- mass density (298.15 K, 40000 kPa, x1 = 0.9502): 1059.1 ± 0.4 kg/m3
- mass density (308.15 K, 100 kPa, x1 = 0.0535): 699.2 ± 0.3 kg/m3
- mass density (308.15 K, 100 kPa, x1 = 0.0978): 706.9 ± 0.3 kg/m3
- mass density (308.15 K, 100 kPa, x1 = 0.3935): 772.9 ± 0.3 kg/m3
- mass density (308.15 K, 100 kPa, x1 = 0.496): 802.3 ± 0.3 kg/m3
- mass density (308.15 K, 100 kPa, x1 = 0.5475): 819 ± 0.3 kg/m3
- mass density (308.15 K, 100 kPa, x1 = 0.5937): 835.7 ± 0.3 kg/m3
- mass density (308.15 K, 100 kPa, x1 = 0.7002): 877.3 ± 0.3 kg/m3
- mass density (308.15 K, 100 kPa, x1 = 0.8013): 924.1 ± 0.3 kg/m3
- mass density (308.15 K, 100 kPa, x1 = 0.8979): 979.6 ± 0.3 kg/m3
- mass density (308.15 K, 100 kPa, x1 = 0.9502): 1013.1 ± 0.4 kg/m3
- mass density (308.15 K, 5000 kPa, x1 = 0.0535): 704 ± 0.4 kg/m3
- mass density (308.15 K, 5000 kPa, x1 = 0.0978): 711.8 ± 0.4 kg/m3
- mass density (308.15 K, 5000 kPa, x1 = 0.3935): 778.1 ± 0.3 kg/m3
- mass density (308.15 K, 5000 kPa, x1 = 0.496): 807.6 ± 0.3 kg/m3
- mass density (308.15 K, 5000 kPa, x1 = 0.5475): 824.2 ± 0.3 kg/m3
